Assay results published in patent publication US20230250096A1, “SUBSTITUTED PHENYL-1H-PYRROLO[2,3-c] PYRIDINE DERIVATIVES” (Janssen Pharmaceutica NV, priority 2021, published 2023).

Key:
[1] = biological target: T1, menin/MLL (terbium chelate-labeled menin, FITC-MBM1 peptide) (Homo sapiens, UniProt O00255, T541A); experiment: Menin/MLL homogenous time-resolved fluorescence (HTRF) assay; type: binding; conditions: 30 min incubation
T1 construct: Menin (a.a 1-610-6xhis tag, 2.3 mg/mL in 20 mM Hepes)
T1 sequence (O00255 with tags, fused parts or gaps T541A): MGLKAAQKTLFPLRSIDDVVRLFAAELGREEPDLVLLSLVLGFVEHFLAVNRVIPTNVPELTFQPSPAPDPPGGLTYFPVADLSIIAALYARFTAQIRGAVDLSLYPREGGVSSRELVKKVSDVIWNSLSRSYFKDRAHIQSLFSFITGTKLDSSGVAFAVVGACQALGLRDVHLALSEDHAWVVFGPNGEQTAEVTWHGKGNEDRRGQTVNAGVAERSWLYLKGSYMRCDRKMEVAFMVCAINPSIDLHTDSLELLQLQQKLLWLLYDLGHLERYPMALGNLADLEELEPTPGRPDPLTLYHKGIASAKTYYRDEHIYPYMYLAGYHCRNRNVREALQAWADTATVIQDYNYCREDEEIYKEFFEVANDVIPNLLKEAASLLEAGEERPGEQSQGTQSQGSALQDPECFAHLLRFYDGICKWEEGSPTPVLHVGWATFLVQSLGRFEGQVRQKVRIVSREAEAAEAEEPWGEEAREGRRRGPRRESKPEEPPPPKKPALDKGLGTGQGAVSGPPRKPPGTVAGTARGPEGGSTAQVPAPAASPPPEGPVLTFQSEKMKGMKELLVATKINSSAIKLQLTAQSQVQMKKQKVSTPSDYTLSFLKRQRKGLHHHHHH
Procedure: 1) Menin/MLL Homogenous Time-Resolved Fluorescence (HTRF) Assay
To an untreated, white 384-well microtiter plate was added 40 nL 200× test compound in DMSO and 4 μL 2× terbium chelate-labeled menin (vide infra for preparation) in assay buffer (40 mM Tris HCl, pH 7.5, 50 mM NaCl. 1 mM DTT (dithiothreitol) and 0.05% Pluronic F-127). After incubation of test compound and terbium chelate-labeled menin for 30 min at ambient temperature, 4 μL 2×FITC-MBM1 peptide (FITC-β-alanine-[…]-NH2) (“FITC” means fluorescein isothiocyanate) in assay buffer was added, the microtiter plate centrifuged at 1000 rpm for 1 min and the assay mixtures incubated for 15 min at ambient temperature. The relative amount of menin FITC-MBM1 complex present in an assay mixture is determined by measuring the homogenous time-resolved fluorescence (HTRF) of the terbium/FITC donor/acceptor fluorphore pair using an EnVision microplate reader (ex. 337 nm/terbium em. 490 nm/FITC em. 520 nm) at ambient temperature. The degree of fluorescence resonance energy transfer (the HTRF value) is expressed as the ratio of the fluorescence emission intensities of the FITC and terbium fluorophores (F^em520 nm/F^em490 nm). The final concentrations of reagents in the binding assay are […] terbium chelate-labeled menin, 75 nM FITC-MBM1 peptide and 0.5% DMSO in assay buffer. Dose-response titrations of test compounds are conducted using an 11 point, four-fold serial dilution scheme, starting typically at 10 μM.
Compound potencies were determined by first calculating % inhibition at each compound concentration according to equation 1:
% inhibition=((HC−LC)−(HTRF^compound−LC))/(HC−LC))*100 (Eqn 1)
Where LC and HC are the HTRF values of the assay in the presence or absence of a saturating concentration of a compound that competes with FITC-MBM1 for binding to menin, and HTRF^compound is the measured HTRF value in the presence of the test compound. HC and LC HTRF values represent an average of at least 10 replicates per plate.
% inhibition=Bottom+(Top−Bottom)/(1+10^((log/C50−log[cmpd])*h)) (Eqn 2)
Where Bottom and Top are the lower and upper asymptotes of the dose-response curve, respectively, IC50 is the concentration of compound that yields 50% inhibition of signal and h is the Hill coefficient.
Preparation of Terbium cryptate labeling of Menin: Menin (a.a 1-610-6xhis tag, 2.3 mg/mL in 20 mM Hepes (2-[4-(2-Hydroxyethyl)-1-piperazinyl]ethane sulfonic acid), 80 mM NaCl, 5 mM DTT (Dithiothreitol), pH 7.5) was labeled with terbium cryptate as follows. 200 μg of Menin was buffer exchanged into 1×Hepes buffer. 6.67 μM Menin was incubated with 8-fold molar excess NHS (N-hydroxysuccinimide)-terbium cryptate for 40 minutes at room temperature. Half of the labeled protein was purified away from free label by running the reaction over a NAP5 column with elution buffer (0.1M Hepes, pH 7+0.1% BSA (bovine serum albumin)). The other half was eluted with 0.1 M phosphate buffered saline (PBS), pH7. 400 μl of eluent was collected for each, aliquoted and frozen at −80° C. The final concentration of terbium-labeled Menin protein was 115 μg/mL in Hepes buffer and 85 μg/mL in PBS buffer, respectively.

[2] = tested on: MEIS1 mRNA expression; experiment: MEIS1 mRNA expression assay (Quantigene Singleplex) in MOLM14 cells; type: cell-based, human; conditions: Homo sapiens, MOLM-14, 48 h, 48 hours incubation
Procedure: 2b) MEIS1 mRNA Expression Assay
MEIS1 mRNA expression upon treatment of compound was examined by Quantigene Singleplex assay (Thermo Fisher Scientific). This technology allows for direct quantification of mRNA targets using probes hybridizing to defined target sequences of interest and the signal is detected using a Multimode plate reader Envision (PerkinElmer). The MOLM14 cell line was used for this experiment. Cells were plated in 96-well plates at 3,750 cells/well in the presence of increasing concentrations of compounds. After incubation of 48 hours with compounds, cells were lysed in lysis buffer and incubated for 45 minutes at 55° C. Cell lysates were mixed with human MEIS specific capture probe or human RPL28 (Ribosomal Protein L28) specific probe as a normalization control, as well as blocking probes. Cell lysates were then transferred to the custom assay hybridization plate (Thermo Fisher Scientific) and incubated for 18 to 22 hours at 55° C. Subsequently, plates were washed to remove unbound materials followed by sequential addition of preamplifiers, amplifiers, and label probe. Signals (═gene counts) were measured with a Multimode plate reader Envision. IC50S were calculated by dose-response modelling using appropriate software. For all non-housekeeper genes response equal counts corrected for background and relative expression. For each sample, each test gene signal (background subtracted) was divided by the normalization gene signal (RPL28: background subtracted). Fold changes were calculated by dividing the normalized values for the treated samples by the normalized values for the DMSO treated sample. Fold changes of each target gene were used for the calculation of IC50S.

Row | Compound | IC50 [1] [nM] | IC50 [2] [nM]
1 | Cc1cncc2c1c(C[C@@H]1CCN(C3CCNC(=O)CC3)C1)cn2-c1ccc(F)cc1C(=O)N(C)C(C)C (mixture of isomers) [Compound 139] | 0.119 | 444
2 | CC(=O)N1CCCC(N2CC[C@@H](Cc3cn(-c4ccc(F)cc4C(=O)N(C)C(C)C)c4cncc(C)c34)C2)C1 (mixture of isomers) [Compound 215] | 0.291 | 299
3 | CC(=O)N1CCCC(N2CC[C@@H](Cc3cn(-c4ccc(F)cc4C(=O)N(C)C(C)C)c4cncc(C)c34)C2)CC1 (mixture of isomers) [Compound 216] | 0.187 | 100
4 | CCN(C(=O)c1cc(F)ccc1-n1cc(C[C@@H]2CCN(CC3CCNC(=O)CC3)C2)c2c(C)cncc21)C(C)C (mixture of isomers) [Compound 254] | 0.071 | 19
5 | COCCN(C)CCC[C@H](C(C)C)N1CC[C@H](Cc2cn(-c3ccc(F)cc3C(=O)N(C)C(C)C)c3cncc(C)c23)C1 (single isomer, unassigned) [Compound 2a] | 0.024 | 36
6 | CC(=O)N1CCN(CCC[C@@H](C(C)C)N2CC[C@H](Cc3cn(-c4ccc(F)cc4C(=O)N(C)C(C)C)c4cncc(C)c34)C2)CC1 (single isomer, unassigned) [Compound 9b] | 0.975 | 42
7 | CC(=O)N1C[C@@H]2CN(CCC[C@H](C(C)C)N3CC[C@@H](Cc4cn(-c5ccc(F)cc5C(=O)N(C)C(C)C)c5cncc(Cl)c45)C3)C[C@H]2C1 (single isomer, unassigned) [Compound 18a] | 0.019 | 5
8 | CC(=O)N1C[C@@H]2CN(CCC[C@@H](C(C)C)N3CC[C@H](Cc4cn(-c5ccc(F)cc5C(=O)N(C)C(C)C)c5cncc(Cl)c45)C3)C[C@H]2C1 (single isomer, unassigned) [Compound 19b] | 0.065 | 128
9 | CC[C@H]([C@H]1C[C@@H](N2C[C@H]3CN(C(C)=O)C[C@@H]3C2)C1)N1CC[C@H](Cc2cn(-c3ccc(F)cc3C(=O)N(C)C(C)C)c3cncc(Cl)c23)C1 (single isomer, unassigned) [Compound 27a] | 0.012 | < 4.1

Continued, values first:

Row | IC50 [1] [nM] | IC50 [2] [nM] | Compound
10 | 0.06 | 20 | Cc1cncc2c1c(C[C@@H]1CCN(C(C)C3CCOCC3)C1)cn2-c1ccc(F)cc1C(=O)N(C)C(C)C (mixture of isomers) [Compound 48]
11 | 0.183 | ~895 | Cc1cncc2c1c(C[C@H]1CCN(CC3CCCC(=O)N3)C1)cn2-c1ccc(F)cc1C(=O)N(C)C(C)C (mixture of isomers) [Compound 89]
12 | 0.103 | 259 | CC(=O)N1CCCC(N2CC[C@H](Cc3cn(-c4ccc(F)cc4C(=O)N(C)C(C)C)c4cncc(C)c34)C2)CC1 (mixture of isomers) [Compound 222]
13 | 8.66 | ~3880 | CC(=O)N1CCC(CN2CC[C@H](Cc3cn(-c4ccc(F)cc4S4(=O)=NCCC4)c4cncc(C)c34)C2)CC1 (mixture of isomers) [Compound 224]
14 | 0.637 | 340 | CC(=O)NCC(C1CCN(C(C)=O)CC1)N1CC[C@@H](Cc2cn(-c3ccc(F)cc3C(=O)N(C)C(C)C)c3cncc(C)c23)C1 (mixture of isomers) [Compound 225]
15 | ~0.068 | 18 | CC(=O)N1CCC(N2CC[C@@H](Cc3cn(-c4ccc(F)cc4C(=O)N(C)C(C)C)c4cncc(C)c34)C2)C(C)(C)C1 (mixture of isomers) [Compound 234]
16 | 0.255 | 11 | CC(=O)N1CCC(N2CC[C@@H](Cc3cn(-c4ccc(F)cc4C(=O)N(C)C(C)C)c4cncc(C)c34)C2)C(CO)C1 (mixture of isomers) [Compound 248]
17 | 0.024 | 13 | CC(=O)N1CCN(CCC[C@H](C(C)C)N2CC[C@@H](Cc3cn(-c4ccc(F)cc4C(=O)N(C)C(C)C)c4cncc(C)c34)C2)CC1 (single isomer, unassigned) [Compound 8a]
18 | ~7.3 | 44 | CC(=O)N1CCN(CCC[C@@H](C(C)C)N2CC[C@@H](Cc3cn(-c4ccc(F)cc4C(=O)N(C)C(C)C)c4cncc(C)c34)C2)CC1 (single isomer, unassigned) [Compound 8b]
19 | 0.017 | 110 | CC(=O)N1C[C@@H]2CN(CCC[C@@H](C(C)C)N3CC[C@@H](Cc4cn(-c5ccc(F)cc5C(=O)N(C)C(C)C)c5cncc(Cl)c45)C3)C[C@H]2C1 (single isomer, unassigned) [Compound 18b]
20 | 0.038 | 19 | CC[C@H]([C@H]1C[C@H](N2C[C@H]3CN(C(C)=O)C[C@@H]3C2)C1)N1CC[C@H](Cc2cn(-c3ccc(F)cc3C(=O)N(C)C(C)C)c3cncc(Cl)c23)C1 (single isomer, unassigned) [Compound 27b]
21 | 0.038 | 40 | CC[C@@H]([C@H]1C[C@@H](N2C[C@H]3CN(C(C)=O)C[C@@H]3C2)C1)N1CC[C@H](Cc2cn(-c3ccc(F)cc3C(=O)N(C)C(C)C)c3cncc(Cl)c23)C1 (single isomer, unassigned) [Compound 27c]
22 | 0.013 | 80 | CC[C@@H]([C@H]1C[C@H](N2C[C@H]3CN(C(C)=O)C[C@@H]3C2)C1)N1CC[C@H](Cc2cn(-c3ccc(F)cc3C(=O)N(C)C(C)C)c3cncc(Cl)c23)C1 (single isomer, unassigned) [Compound 27d]
23 | ~0.49 | > 1000 | CC(=O)N1C[C@@H]2CN([C@H]3C[C@@H](CN4CC[C@@H](Cc5cn(-c6ccc(F)cc6C(=O)N(C)C(C)C)c6cncc(C)c56)C4)C3)C[C@H]2C1 (single isomer, unassigned) [Compound 30]
